Data reported in patent publication US20190077795A1, “ARGININE […] INHIBITORS AND USES THEREOF” (Epizyme, Inc., priority 2014, published 2019).
Like-named read-outs stand apart in the source and are kept apart here.

Tests used:
human PRMT8 = human PRMT8 (Homo sapiens, UniProt Q9NR22); assay: PRMT8 Biochemical Assay; settings: PRMT8 IC50 (uM), peptide substrate, 3H-SAM Flashplate assay
human PRMT1 = target: T1, human PRMT1 (Homo sapiens, UniProt Q99873); assay: PRMT1 Biochemical Assay; settings: peptide substrate, 3H-SAM Flashplate assay; read-out: PRMT1 IC50
T1 construct: GST-tagged PRMT1; made in house; host or cells: High Five insect cells (baculovirus, pFastBac1)
From the text: (§1) S-adenosylmethionine (SAM), S-adenosylhomocysteine (SAH), bicine, Tween20, dimethylsulfoxide (DMSO), bovine skin gelatin (BSG), and Tris(2-carboxyethyl)phosphine hydrochloride solution (TCEP) were purchased from Sigma-Aldrich at the highest level of purity possible. ^3H-SAM was purchase from American Radiolabeled Chemicals with a specific activity of 80 Ci/mmol. 384-well streptavidin Flashplates were purchased from PerkinElmer.
Recombinant baculovirus were generated according to Bac-to-Bac kit instructions (Life Technologies). […] Infections were carried out at 27° C. for 48 hours, harvested by centrifugation, and stored at −80° C. for purification.
GST-tagged PRMT1 was eluted with 50 mM Tris, 2 mM glutathione, pH 7.8, dialysed in buffer A and concentrated to 1 mg/mL.
General Procedure for PRMT1 Enzyme Assays on Peptide Substrates.
(§2) The assays were all performed in a buffer consisting of 20 mM Bicine (pH=7.6), 1 mM TCEP, 0.005% BSG, and 0.002% Tween 20, prepared on the day of use. […] DMSO (1 ul) was added to Columns 11, 12, 23, 24, rows A-H for the maximum signal control and 1 ul of SAH, a known product and inhibitor of PRMT1, was added to columns 11, 12, 23, 24, rows I-P for the minimum signal control. A cocktail (40 ul) containing the PRMT1 enzyme was added by Multidrop Combi (Thermo-Fisher). The compounds were allowed to incubate with PRMT1 for 30 min at room temperature, then a cocktail (10 ul) containing SAM and peptide was added to initiate the reaction (final volume=51 ul). […] The assays were stopped by the addition of non-radiolabeled SAM (10 ul) to a final concentration of 300 uM, which dilutes the ^3H-SAM to a level where its incorporation into the peptide substrate is no longer detectable. 50 ul of the reaction in the 384-well polypropylene plate was then transferred to a 384-well Flashplate and the biotinylated peptides were allowed to bind to the streptavidin surface for at least 1 hour before being washed once with 0.1% Tween20 in a Biotek ELx405 plate washer. The plates were then read in a PerkinElmer TopCount plate reader to measure the quantity of ^3H-labeled peptide bound to the Flashplate surface, measured as disintegrations per minute (dpm) or alternatively, referred to as counts per minute (cpm).
(§3) Where dpm=disintegrations per minute, cmpd=signal in assay well, and min and max are the respective minimum and maximum signal controls.
(§4) Where top and bottom are the normally allowed to float, but may be fixed at 100 or 0 respectively in a 3-parameter fit. The Hill Coefficient normally allowed to float but may also be fixed at 1 in a 3-parameter fit. Y is the % inhibition and X is the compound concentration.

human PRMT6 = target: T2, human PRMT6 (Homo sapiens, UniProt Q96LA8); assay: PRMT6 Biochemical Assay
T2 construct: Flag-PRMT6-His; made in house; host or cells: HEK 293F cells (BacMam baculovirus, pFastBacMam)
From the text: as §1, with “(BSG), sodium butyrate” for “(BSG),”
Peptide representative of human histone H4 residues 36-50 was synthesized with an N-terminal linker-affinity tag motif and a C-terminal amide cap by 21st Century Biochemicals.
The amplified gene was subcloned into pFastBacMam (Viva Biotech).
Recombinant baculovirus were generated according to Bac-to-Bac kit instructions (Life Technologies). […] Infections were carried out at 37° C. for 48 hours, harvested by centrifugation, and stored at −80° C. for purification.
Column was washed with 20 mM imidazole in the same buffer and Flag-PRMT6-His was eluted with 150 mM imidazole. Pooled fractions were dialysed against buffer Ni-A and further purified by anti-flag M2 affinity chromatography. Flag-PRMT6-His was eluted with 200 ug/ml FLAG peptide in the same buffer. Pooled fractions were dialysed in 20 mM Tris, 150 mM NaCl, 10% glycerol and 5 mM β-mercaptoethanol, pH 7.8.
General Procedure for PRMT6 Enzyme Assays on Peptide Substrates.
as §2, with “PRMT6,” for “PRMT1,”, “PRMT6” for “PRMT1”, “400” for “300”
as §3, §4

[1] = tested on: mono-methyl arginine in RKO cells; assay: RKO Methylation Assay, In Cell Western (ICW); type: cell-based; settings: 72 hours
From the text: RKO adherent cells were purchased from ATCC (American Type Culture Collection), Manassas, Va., USA. DMEM/Glutamax medium, penicillin-streptomycin, heat inactivated fetal bovine serum, 0.05% trypsin and D-PBS were purchased from Life Technologies, Grand Island, N.Y., USA. Odyssey blocking buffer, 800CW goat anti-rabbit IgG (H+L) antibody, and Licor Odyssey infrared scanner were purchased from Licor Biosciences, Lincoln, Nebr., USA. Mono-methyl arginine antibody was purchased from Cell Signaling Technology, Danvers, Mass., USA. Methanol was purchased from VWR, Franklin, Mass., USA. 10% Tween 20 was purchased from KPL, Inc., Gaithersburg, Md., USA. DRAQ5 was purchased from Biostatus Limited, Leicestershire, UK.
RKO adherent cells were maintained in growth medium (DMEM/Glutamax medium supplemented with 10% v/v heat inactivated fetal bovine serum and 100 units/mL penicillin-streptomycin) and cultured at 37° C. under 5% CO2.
Cell treatment, In Cell Western (ICW) for detection of mono-methyl arginine and DNA content.
Compound (100 nL) from a 96-well source plate was added directly to 384 well cell plate. Plates were incubated at 37° C., 5% CO2 for 72 hours. After three days of incubation, plates were brought to room temperature outside of the incubator for ten minutes and blotted on paper towels to remove cell media. 50 μL of ice cold 100% methanol was added directly to each well and incubated for 30 min at room temperature. After 30 min, plates were transferred to a Biotek EL406 plate washer and washed 2 times with 100 μL per well of wash buffer (1×PBS). Next 60 μL per well of Odyssey blocking buffer (Odyssey Buffer with 0.1% Tween 20 (v/v)) were added to each plate and incubated 1 hour at room temperature. Blocking buffer was removed and 20 μL per well of primary antibody was added (mono-methyl arginine diluted 1:200 in Odyssey buffer with 0.1% Tween 20 (v/v)) and plates were incubated overnight (16 hours) at 4° C. Plates were washed 5 times with 100 μL per well of wash buffer. […] The plates were washed 5 times with 100 μL per well wash buffer then 2 times with 100 μL per well of water. Plates were allowed to dry at room temperature then imaged on the Licor Odyssey machine which measures integrated intensity at 700 nm and 800 nm wavelengths. Both 700 and 800 channels were scanned.
First, the ratio for each well was determined by:
Each plate included fourteen control wells of DMSO only treatment (minimum activation) as well as fourteen control wells for maximum activation treated with 20 μM of a reference compound. The average of the ratio values for each control type was calculated and used to determine the percent activation for each test well in the plate. Reference compound was serially diluted three-fold in DMSO for a total of nine test concentrations, beginning at 20 μM. Percent activation was determined and EC30 curves were generated using triplicate wells per concentration of compound.

[2] = peptide substrate, 3H-SAM Flashplate assay, read-out: PRMT6 IC50

T1 sequence (Q99873 with tags, fused parts or gaps): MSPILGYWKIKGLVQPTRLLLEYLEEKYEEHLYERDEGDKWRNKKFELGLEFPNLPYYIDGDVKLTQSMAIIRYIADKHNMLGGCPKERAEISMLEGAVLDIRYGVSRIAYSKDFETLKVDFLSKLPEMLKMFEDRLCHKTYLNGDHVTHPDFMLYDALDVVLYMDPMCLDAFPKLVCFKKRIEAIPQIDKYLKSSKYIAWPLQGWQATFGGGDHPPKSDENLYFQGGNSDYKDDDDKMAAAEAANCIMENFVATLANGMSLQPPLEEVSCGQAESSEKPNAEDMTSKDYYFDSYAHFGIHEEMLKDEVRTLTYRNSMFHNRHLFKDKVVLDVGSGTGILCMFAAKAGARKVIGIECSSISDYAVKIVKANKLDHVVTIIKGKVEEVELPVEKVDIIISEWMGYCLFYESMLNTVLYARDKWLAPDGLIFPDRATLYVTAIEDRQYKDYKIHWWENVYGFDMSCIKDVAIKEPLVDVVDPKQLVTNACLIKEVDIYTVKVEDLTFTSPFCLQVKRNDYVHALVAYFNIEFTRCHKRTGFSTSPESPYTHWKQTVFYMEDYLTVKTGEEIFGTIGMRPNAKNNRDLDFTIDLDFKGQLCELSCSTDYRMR
Chain of human PRMT8 (Q9NR22 whole entry): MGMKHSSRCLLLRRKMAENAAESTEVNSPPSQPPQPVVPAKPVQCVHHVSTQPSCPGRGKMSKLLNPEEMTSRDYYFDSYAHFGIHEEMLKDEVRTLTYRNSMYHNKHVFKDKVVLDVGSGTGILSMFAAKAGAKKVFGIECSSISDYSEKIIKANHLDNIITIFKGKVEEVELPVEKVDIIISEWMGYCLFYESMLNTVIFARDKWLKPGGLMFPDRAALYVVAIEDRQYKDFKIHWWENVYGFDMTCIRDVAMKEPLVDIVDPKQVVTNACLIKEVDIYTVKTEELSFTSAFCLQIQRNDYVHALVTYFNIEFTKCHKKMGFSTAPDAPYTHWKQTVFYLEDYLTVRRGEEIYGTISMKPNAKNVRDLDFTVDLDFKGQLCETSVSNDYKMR
T2 sequence (Q96LA8 with tags, fused parts or gaps): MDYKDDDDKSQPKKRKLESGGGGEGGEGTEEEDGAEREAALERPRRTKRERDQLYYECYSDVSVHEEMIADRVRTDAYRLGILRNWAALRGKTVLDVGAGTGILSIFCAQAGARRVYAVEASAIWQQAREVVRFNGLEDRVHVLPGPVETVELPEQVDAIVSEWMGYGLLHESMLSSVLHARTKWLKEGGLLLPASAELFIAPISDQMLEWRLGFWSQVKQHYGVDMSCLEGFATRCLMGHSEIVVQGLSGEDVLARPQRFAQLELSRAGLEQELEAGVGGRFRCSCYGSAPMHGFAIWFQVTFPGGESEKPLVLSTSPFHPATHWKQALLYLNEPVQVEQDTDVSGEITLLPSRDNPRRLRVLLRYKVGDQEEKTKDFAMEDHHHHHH

Row | SMILES | IC50 (human PRMT8) [µM] | IC50 (human PRMT1) [nM] | IC50 (human PRMT6; [2]) [µM] | ICW EC30 [1] [nM] | IC50 (human PRMT6; PRMT6 IC50 (uM)) [µM]
1 | CNCCN(C)Cc1c[nH]nc1-c1ccc(OCCOc2ccc(Oc3ccccc3)cc2)cc1 [Compound 6] | 0.0192 | 4.79 | 0.00343 | 328.2 | 
2 | C=C(C)COc1c(Cl)cc(-c2n[nH]cc2CN(C)CCNC)cc1Cl [Compound 7] | 0.0124 | 4.86 | 0.0131 | 91.54 | 
3 | CNCCN(C)Cc1c[nH]nc1-c1ccc(OCCOc2cccc(OCCN3CCOCC3)c2)cc1 [Compound 8] | 0.00939 | 4.91 | 0.00449 | 233.7 | 
4 | CNCCN(C)Cc1c[nH]nc1-c1ccc(OCCOc2ccc(OCc3ccccc3)cc2)cc1 [Compound 9] | 0.024 | 5.12 | 0.00222 | 329.1 | 
5 | CNCCN(C)Cc1c[nH]nc1-c1ccc(N(C)CCCOc2ccc(OC)cc2)cc1 [Compound 10] | 0.0124 | 5.21 | 0.00825 | 176.2 | 
6 | CNCCN(C)Cc1c[nH]nc1-c1ccc(OCCOc2ccc(C3CCOCC3)cc2)cc1 [Compound 11] | 0.0133 | 5.23 | 0.00403 | 113.8 | 
7 | CNCCN(C)Cc1c[nH]nc1-c1ccc(N(C)CCCOc2ccc(OC)cc2)cc1 [Compound 12] | 0.0264 | 5.25 | 0.0146 | 449.8 | 
8 | CNCCN(C)Cc1c[nH]nc1-c1ccc(OCCOc2cccc(OCCC3CCOCC3)c2)cc1 [Compound 14] | 0.0146 | 5.49 | 0.00518 | 347.3 | 
9 | CNCCN(C)Cc1c[nH]nc1-c1ccc(OCCOc2ccc(Oc3ccc(OCCOC)cc3)cc2)cc1 [Compound 15] | 0.0193 | 5.79 | 0.00238 | 220.1 | 
10 | CNCCN(C)Cc1c[nH]nc1-c1ccc(OCCOc2ccc(CO)cc2)cc1 [Compound 16] | 0.0206 | 5.8 | 0.0037 | 276.3 | 
11 | CCC(CC)Oc1ccc(-n2nccc2CN(C)CCNC)cc1 [Compound 18] | 0.0153 | 5.86 |  | 91.46 | 0.0678
12 | CCN(CCOc1ccc(OC)cc1)c1ccc(-c2n[nH]cc2CN(C)CCNC)cc1 [Compound 20] | 0.0199 | 6.16 | 0.0169 | 336.2 | 
13 | CNCCN(C)Cc1c[nH]nc1-c1ccc(OCCOc2ccc(C(O)CO)cc2)cc1 (centres unmarked) [Compound 21] | 0.026 | 6.23 | 0.00616 | 3184 | 
14 | CNCCN(C)Cc1c[nH]nc1-c1cc(F)c(OC2COC2)c(C(F)(F)F)c1 [Compound 23] | 0.0608 | 6.47 | 0.0169 | 1296 | 
15 | CNCCN(C)Cc1c[nH]nc1-c1cc(OCCOC)cc(C(F)F)c1 [Compound 24] | 0.132 | 6.5 | 0.212 | 1251 | 
16 | CNCCN(C)Cc1c[nH]nc1-c1ccc(OCCc2ccccc2)cc1 [Compound 25] | 0.0173 | 6.68 | 0.011 | 97 | 
17 | CNCCN(C)Cc1c[nH]nc1-c1cc(F)c(Cl)c(C(F)(F)F)c1 [Compound 27] | 0.037 | 6.75 | 0.0214 | 377 | 
18 | COCCOc1cc(-c2n[nH]cc2CN(C)CCN)cc(C(F)F)c1 [Compound 29] | 0.112 | 6.94 | 0.276 | 5437 | 
19 | CN(CCN)Cc1c[nH]nc1-c1cc(F)c(Cl)c(C(F)(F)F)c1 [Compound 30] | 0.0608 | 7.05 | 0.0135 | 648 | 
20 | CNCCN(C)Cc1c[nH]nc1-c1ccc(OCCOc2cccc(OCCC(O)CO)c2)cc1 (centres unmarked) [Compound 31] | 0.02 | 7.08 | 0.00432 | 2325.4 | 
